# Test results: patent publication US6060241A (priority 1997, dated 2000)
# Legend:
# [1] = target: 3 oxo acid CoA-transferase (Helicobacter pylori, UniProt P56006+P56007); experiment: Reverse reaction of CoA-transferase, disappearance of acetoacetyl CoA at 310 nm; type: biochemical; conditions: Hp 69A + 2 mM iodoacetamide; Hp 69A alone = 227 ± 4
# Source text: As described above, CoA-transferase also catalyzes the reverse reaction, acetoacetyl CoA+succinate→acetoacetate+succinyl CoA. This additional 3-oxoacid CoA-transferase activity is examined in transformed E. coli and H. pylori by measuring the disappearance of acetoacetyl CoA at 310 nm.
# acetoacetyl CoA thiolase = target: T1, acetoacetyl CoA thiolase (Helicobacter pylori, UniProt O25399); experiment: biochemical; type: biochemical
# T1 construct: mouse-adapted P49 used for mutants
# T1 sequence (O25399 entry or part of it): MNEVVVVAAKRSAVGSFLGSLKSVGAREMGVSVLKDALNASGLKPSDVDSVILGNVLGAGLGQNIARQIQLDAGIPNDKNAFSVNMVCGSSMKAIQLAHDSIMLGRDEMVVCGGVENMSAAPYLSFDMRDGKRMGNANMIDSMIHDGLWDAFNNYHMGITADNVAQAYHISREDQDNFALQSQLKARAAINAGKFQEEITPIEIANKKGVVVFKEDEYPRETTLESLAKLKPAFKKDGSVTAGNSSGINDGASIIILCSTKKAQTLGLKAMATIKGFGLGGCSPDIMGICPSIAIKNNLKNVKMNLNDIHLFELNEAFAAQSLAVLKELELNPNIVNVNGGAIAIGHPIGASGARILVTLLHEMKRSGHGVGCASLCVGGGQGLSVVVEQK
# Protocol: (§1) Activity was measured by monitoring the increase in A310 corresponding to the formation of acetoacetyl-CoA, as previously described (Howard et al., 1986). The assay contained 67 mM acetoacetate (Aldrich), 300 μM succinyl-CoA and 15 mM MgCl2 in 50 mM Tris-HCl pH 9.1. Under the experiment conditions, ε=7,800 M^-1 cm^-1.
# (§2) The activity assay was performed as described in Example 8, using H. pylori cell lysates.
# The only CoA-transferase activity detected in H. pylori lysates was the one leading to the formation of acetoacetyl CoA from succinyl CoA and acetoacetate in the presence of Mg^2+.
# [2] = target: T2, Hp 3-oxoacid CoA-transferase (Helicobacter pylori, UniProt P56006+P56007); experiment: 3-oxoacid CoA transferase activity endogenous in H. pylori lysates, in the presence of inhibitors; type: biochemical; conditions: substances (50 nM); endogenous enzyme in H. pylori lysate; none = 25 ± 1
# T2 construct: second column endogenous enzyme in H. pylori lysate
# T2 sequence (P56006 whole entry): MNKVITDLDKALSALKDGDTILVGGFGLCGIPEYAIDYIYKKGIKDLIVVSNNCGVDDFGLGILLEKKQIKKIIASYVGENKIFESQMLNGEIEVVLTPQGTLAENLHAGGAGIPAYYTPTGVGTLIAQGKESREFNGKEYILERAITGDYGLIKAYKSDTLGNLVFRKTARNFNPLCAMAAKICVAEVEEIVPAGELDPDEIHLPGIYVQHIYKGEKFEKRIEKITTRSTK
# T2 sequence (P56007 whole entry): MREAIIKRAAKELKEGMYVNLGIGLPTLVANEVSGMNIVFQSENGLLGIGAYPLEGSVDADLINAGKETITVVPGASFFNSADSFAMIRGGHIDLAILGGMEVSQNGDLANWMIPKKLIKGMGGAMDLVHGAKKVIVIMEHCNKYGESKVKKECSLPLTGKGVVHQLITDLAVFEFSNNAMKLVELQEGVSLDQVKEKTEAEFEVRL
# Protocol: as §1, §2
# (§3) The activity assay was performed as described in Example 8 in the presence of the indicated inhibitors. The results are presented below in Table 6
# [3] = target: T2, Hp 3-oxoacid CoA-transferase; experiment: 3-oxoacid CoA transferase activity reconstituted in E. coli, in the presence of inhibitors; type: biochemical; conditions: for Specific activity (mU/mg ± SD), 3-oxoacid CoA transferase, E. coli transformed with pCOA-t: substances (50 nM), lysate of E. coli transformed with pCoA-t, none = 2255 ± 7; for inhibition of Hp CoA-transferase (in words): statement that refers to Example 11
# Protocol: For 3-oxoadipate-CoA and 3-oxoacid CoA-transferase assays (FIGS. 7A, 7B, and 7C), E. coli cells transformed with pCoAT, which contains A^73 TGAA-TATAG^1394 of SEQ ID NO.:1 or with pUrea a plasmid containing the gene for urease (Labigne et al., J. Bacteriol. 173:1920-1931 (1991)) as a negative control, were washed once with M9 salts minimal medium (Molecular Cloning, a laboratory manual, Sambrook, Fritsch and Maniatis, second edition), pellets were stored at -20° C. until just prior to disruption. Thawed cell pellets were resuspended in 1 ml 50 mM phosphate buffer (pH 6.8), 1 mM dithiothreitol (Merck). Cell suspensions were disrupted by sonication and cellular debris removed by centrifugation. For butyrate-acetoacetate-CoA-transferase assays, the buffer used for cell wash and pellets resuspension was: 50 mM MOPS (pH 7.0), 0.5 M (NH4)2SO4, 20% (v/v) glycerol, 1 mM EDTA. Protein concentration in cellular extracts was determined by Bradford's method (1976) using γ globulin as standard (Bio-Rad) and activity expressed in U/mg of protein.
# as §1, §3
# [4] = target: mammalian CoA-transferase (Homo sapiens, UniProt P55809); experiment: Effect on the mammalian CoA-transferase; conditions: statement that refers to Example 11; no mammalian data printed
# mammalian CoA-transferase, sequence (P55809 40-520): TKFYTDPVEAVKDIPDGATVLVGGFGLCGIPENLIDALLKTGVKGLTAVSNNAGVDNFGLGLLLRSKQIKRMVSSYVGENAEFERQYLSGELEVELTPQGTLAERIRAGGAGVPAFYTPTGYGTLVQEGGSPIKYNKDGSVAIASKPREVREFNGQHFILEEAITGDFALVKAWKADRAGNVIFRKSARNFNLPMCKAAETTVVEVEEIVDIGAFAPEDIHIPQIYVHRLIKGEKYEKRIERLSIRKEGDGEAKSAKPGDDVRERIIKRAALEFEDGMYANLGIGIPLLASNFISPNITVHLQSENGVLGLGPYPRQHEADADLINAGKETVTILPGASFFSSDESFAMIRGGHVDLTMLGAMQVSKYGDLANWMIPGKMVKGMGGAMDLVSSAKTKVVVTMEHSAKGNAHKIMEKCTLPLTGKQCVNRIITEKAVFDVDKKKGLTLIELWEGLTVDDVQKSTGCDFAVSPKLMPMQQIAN
# 3 oxo acid CoA-transferase, sequence (P56007 whole entry): as the sequence (P56007 whole entry) above
# 3 oxo acid CoA-transferase, sequence (P56006 whole entry): as the sequence (P56006 whole entry) above
SMILES,"Specific activity (mU/mg), reverse reaction [1] [mU/mg]","CoA transferase specific activity (acetoacetyl CoA thiolase; 2 mM iodoacetamide, H. pylori lysate, 25±2 mU/mg without iodoacetamide) [mU/mg]",fold induction at 2000 µM (acetoacetyl CoA thiolase; read-out: increase of CoA transferase specific activity),"Specific activity (mU/mg ± SD), 3-oxoacid CoA transferase, H pytori [2] [mU/mg]","Specific activity (mU/mg ± SD), 3-oxoacid CoA transferase, E. coli transformed with pCOA-t [3] [mU/mg]",inhibition of Hp CoA-transferase (in words) [3],inhibition of the mammalian homologue (in words) [4]
NC(=O)CI [iodoacetamide],257 ± 0,60±2,2.5,–,–,–,–
O=C(O)CC(=O)O [disodium malonate],–,–,–,27 ± 4,1823 ± 162,–,–
N[C@@H](CC(=O)O)C(=O)[O-].[Na+] [monosodium aspartate],–,–,–,24 ± 1,1859 ± 151,–,–
O=C(O)CC(O)C(=O)O (stereo not drawn) [monosodium malate],–,–,–,22 ± 8,131 ± 0,–,–
O=C(O)CC(S)C(=O)O (stereo not drawn) [mercapto succinic acid],–,–,–,2 ± 2,16 ± 13,inhibit Hp CoA-transferase,not the mammalian homologue
CC(CC(=O)O)C(=O)O (stereo not drawn) [methyl succinic acid],–,–,–,0 ± 1,67 ± 51,inhibit Hp CoA-transferase,not the mammalian homologue
O=C(O)CCCC(=O)O [glutaric acid],–,–,–,16 ± 5,31 ± 7,–,–
COC(=O)CCC(=O)O [methyl succinic ester],–,–,–,14 ± 3,58 ± 49,–,–
